# Reference: paper PMC5058426 (Journal of porphyrins and phthalocyanines, 2016)
# Experiments:
# [1] = Fluorescence quantum yield in DMF; assay type: physicochemical; details: room temperature, calculated using porphyrin 3 as standard (0.102)
# HEp2 cells [2] = experiment: Time-dependent cellular uptake; assay type: cell-based, human; details: 10 μM; for cellular accumulation compared with MPIX 3: all time points over 24 h
# HEp2 cells [3] = experiment: Phototoxicity, Cell Titer Blue assay; assay type: cell-based, human; details: 24 h
# [4] = reference standard value; cited from earlier work
# [5] = target: EGFR extracellular domain (Homo sapiens, UniProt P00533); experiment: SPR binding to immobilized EGFR; details: SPR sensorgram, 400 to 500 s, 100 μM
# EGFR extracellular domain, sequence (P00533 25-645 limits assumed): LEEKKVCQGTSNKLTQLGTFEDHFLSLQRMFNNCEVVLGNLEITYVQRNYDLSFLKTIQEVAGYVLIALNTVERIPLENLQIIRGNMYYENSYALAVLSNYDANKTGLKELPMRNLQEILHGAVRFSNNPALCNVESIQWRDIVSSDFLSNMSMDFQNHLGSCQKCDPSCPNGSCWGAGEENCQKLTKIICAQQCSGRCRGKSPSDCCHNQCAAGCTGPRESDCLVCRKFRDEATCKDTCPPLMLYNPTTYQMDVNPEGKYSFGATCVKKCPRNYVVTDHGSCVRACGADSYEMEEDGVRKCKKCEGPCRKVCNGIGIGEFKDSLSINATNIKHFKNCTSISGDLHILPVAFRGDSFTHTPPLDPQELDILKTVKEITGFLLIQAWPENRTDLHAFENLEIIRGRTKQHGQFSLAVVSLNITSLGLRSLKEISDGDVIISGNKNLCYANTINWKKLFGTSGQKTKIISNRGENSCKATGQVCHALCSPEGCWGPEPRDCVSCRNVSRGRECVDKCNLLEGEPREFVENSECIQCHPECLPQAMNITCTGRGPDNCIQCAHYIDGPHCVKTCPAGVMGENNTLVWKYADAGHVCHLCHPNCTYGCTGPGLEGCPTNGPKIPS
compound,measurement,setting,value
LARLLT [Compound 7],Φf (fluorescence quantum yield),[1],0.124
same,cellular accumulation compared with MPIX 3,HEp2 cells [2],accumulated significantly less
CCC1=C(C)c2cc3[nH]c(cc4nc(cc5[nH]c(cc1n2)c(C)c5CCC(=O)N[C@@H](CC(C)C)C(=O)N[C@@H](C)C(=O)N[C@@H](CCCNC(=N)N)C(=O)N[C@@H](CC(C)C)C(=O)N[C@@H](CC(C)C)C(=O)N[C@H](C(N)=O)[C@@H](C)O)C(CCC(=O)N[C@@H](CC(C)C)C(=O)N[C@@H](C)C(=O)N[C@@H](CCCNC(=N)N)C(=O)N[C@@H](CC(C)C)C(=O)N[C@@H](CC(C)C)C(=O)N[C@H](C(N)=O)[C@@H](C)O)=C4C)c(C)c3CC [Compound 4],IC50,HEp2 cells [3],50 µM
same,cellular accumulation compared with MPIX 3,HEp2 cells [2],much larger extent than MPIX 3
same,cellular accumulation ranking at early times,HEp2 cells [2]; times < 4 h,accumulated the most
GYHWYGYTPQNVI [Compound 8],Φf (fluorescence quantum yield),[1],0.132
same,cellular uptake relative to MPIX 3,HEp2 cells [2]; after 24 h,about 8 fold
same,cellular accumulation compared with MPIX 3,HEp2 cells [2],much larger extent than MPIX 3
"CCC1=C(C)c2cc3[nH]c(cc4[nH]c(cc5nc(cc1n2)C(C)=C5CC)c(C)c4CCC(=O)O)c(CCC(=O)O)c3C [Compound 3, mesoporphyrin IX]",ΦF (fluorescence quantum yield),[4],0.102
CCC1=C(C)c2cc3[nH]c(cc4nc(cc5[nH]c(cc1n2)c(C)c5CCC(=O)NCC(=O)N[C@@H](Cc1ccc(O)cc1)C(=O)N[C@@H](Cc1c[nH]cn1)C(=O)N[C@@H](Cc1c[nH]c2ccccc12)C(=O)N[C@@H](Cc1ccc(O)cc1)C(=O)NCC(=O)N[C@@H](Cc1ccc(O)cc1)C(=O)N[C@H](C(=O)N1CCC[C@H]1C(=O)N[C@@H](CCC(N)=O)C(=O)N[C@@H](CC(N)=O)C(=O)N[C@H](C(=O)N[C@H](C(N)=O)[C@@H](C)CC)C(C)C)[C@@H](C)O)C(CCC(=O)O)=C4C)c(C)c3CC [Compound 5],Φf (fluorescence quantum yield),[1],0.124
same,dissociation rate from EGFR,[5],slower dissociation rates
same,cellular accumulation compared with MPIX 3,HEp2 cells [2],much larger extent than MPIX 3
